System: human maximum recommended daily dose, FDA database
Assay: DSSTox (FDAMDD) FDA Maximum (Recommended) Daily Dose Database
Conditions: active compounds read low
Method in brief: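 MRDD values come from clinical trials with daily oral dosing, usually for 3–12 months, for the average adult, in mg/day converted to mg/kg-bw/day assuming 60 kg. Antineoplastic mg/m2 doses are divided by 37. Activity score maps log10(1/MRDD mmol) onto 1–100.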

[1] = TherapeuticCategory: antibacterial
[2] = TherapeuticCategory: anti inflammatory
[3] = TherapeuticCategory: skeletal muscle relaxant

Compound `O=[N+]([O-])O[C@@H]1CO[C@H]2[C@@H]1OC[C@@H]2O` has a maximum recommended daily dose (mmol/kg-bw/day) (TherapeuticCategory: antianginal) of 0.0105.
`O=c1[nH]c2ccccc2n1C1CCN(CCCC(c2ccc(F)cc2)c2ccc(F)cc2)CC1` showed a maximum recommended daily dose (mmol/kg-bw/day) (TherapeuticCategory: antipsychotic) of 0.000362.
In the case of `CC1(C)S[C@@H]2[C@H](NC(=O)[C@@H](NC(=O)N3CCNC3=O)c3ccccc3)C(=O)N2[C@H]1C(=O)O`, the maximum recommended daily dose (mmol/kg-bw/day) [1] is reported as 0.217.
Work on `Cc1cccc(Nc2ccccc2C(=O)O)c1C` yielded a maximum recommended daily dose (mmol/kg-bw/day) [2] of 0.0862.
`NS(=O)(=O)c1ccc(N2CCCCS2(=O)=O)cc1` showed a maximum recommended daily dose (mmol/kg-bw/day) (TherapeuticCategory: anticonvulsant) of 0.0344.
`CCC[C@@H]1C[C@@H](C(=O)N[C@@H]([C@H]2O[C@H](SC)[C@H](O)[C@@H](O)[C@H]2O)[C@@H](C)O)N(C)C1` showed a maximum recommended daily dose (mmol/kg-bw/day) [1] of 0.0819.
`Cc1cc2c(OCC(CNC(C)(C)C)OC(=O)c3ccccc3)cccc2[nH]1` (stereo not given) showed a maximum recommended daily dose (mmol/kg-bw/day) (TherapeuticCategory: antihypertensive) of 4.39e-05.
`CC(C)=CCN1CC[C@@]2(C)c3cc(O)ccc3C[C@@H]1[C@@H]2C` showed a maximum recommended daily dose (mmol/kg-bw/day) (TherapeuticCategory: narcotic analgesic) of 0.00876.
`CNC[C@H](O)[C@@H](O)[C@H](O)[C@H](O)CO` was tested, and the maximum recommended daily dose (mmol/kg-bw/day) (TherapeuticCategory: diagnostic aid) was 0.512.
`Clc1ccc2nsnc2c1NC1=NCCN1` gave a maximum recommended daily dose (mmol/kg-bw/day) [3] of 0.00236.
`CCCCC[C@H](O)/C=C/[C@@H]1[C@H]2C/C(=C/CCCC(=O)O)O[C@H]2C[C@H]1O` was tested, and the maximum recommended daily dose (mmol/kg-bw/day) (TherapeuticCategory: platelet aggregation inhibitor) was 2.84e-08.
Work on `Cc1c(C(C)C)c(=O)n(-c2ccccc2)n1C` yielded a maximum recommended daily dose (mmol/kg-bw/day) (TherapeuticCategory: analgesic, antipyretic, antiphlogistic) of 0.13.
`CCCCC1C(=O)NN(c2ccccc2)C1=O` (stereo not given) showed a maximum recommended daily dose (mmol/kg-bw/day) [2] of 0.0215.
Work on `O=P(O)(O)OCC(Cl)(Cl)Cl` yielded a maximum recommended daily dose (mmol/kg-bw/day) (TherapeuticCategory: sedative, hypnotic) of 0.145.
`S=P(N1CC1)(N1CC1)N1CC1` showed a maximum recommended daily dose (mmol/kg-bw/day) (TherapeuticCategory: antineoplastic) of 0.00211.
Work on `C[C@]12CC[C@H]3[C@@H](CCC4=CC(=O)CC[C@@H]43)[C@@H]1CC[C@@H]2O` yielded a maximum recommended daily dose (mmol/kg-bw/day) (TherapeuticCategory: anabolic) of 0.0121.
In the case of `O=C1CN(/N=C/c2ccc(-c3ccc([N+](=O)[O-])cc3)o2)C(=O)N1`, the maximum recommended daily dose (mmol/kg-bw/day) [3] is reported as 0.0212.
With `N[C@@H]1[C@@H](O)[C@H](O)[C@@H](CO)O[C@H]1O` the maximum recommended daily dose (mmol/kg-bw/day) (TherapeuticCategory: antiarthritic) was 0.558.
Work on `OC[C@@H](O)[C@@H](O)[C@H](O)[C@H](O)CO` yielded a maximum recommended daily dose (mmol/kg-bw/day) (TherapeuticCategory: diuretic, diagnostic aid) of 5.48.
`CCCCC[C@](C)(O)/C=C/[C@@H]1[C@@H](C/C=C\CCCC(=O)O)[C@@H](O)C[C@H]1O` showed a maximum recommended daily dose (mmol/kg-bw/day) (TherapeuticCategory: oxytocic) of 0.000543.
In the case of `CCCCOc1ccc(C[N+]2(C)[C@@H]3CC[C@H]2CC(OC(=O)[C@H](CO)c2ccccc2)C3)cc1` (stereo not given in full), the maximum recommended daily dose (mmol/kg-bw/day) (TherapeuticCategory: antispasmotic, anticholinergic) is reported as 0.000915.
`CCCCCCC(=O)O[C@H]1CC[C@H]2[C@@H]3CCc4cc(O)ccc4[C@H]3CC[C@]12C` gave a maximum recommended daily dose (mmol/kg-bw/day) (TherapeuticCategory: estrogen) of 0.0013.
`CN(C)CCCOC1(Cc2ccccc2)CCCCCC1` was tested, and the maximum recommended daily dose (mmol/kg-bw/day) (TherapeuticCategory: vasodilator) was 0.0345.
In the case of `O=C(O)C1=C(CSc2nnnn2CS(=O)(=O)O)CS[C@@H]2[C@H](NC(=O)[C@H](O)c3ccccc3)C(=O)N12`, the maximum recommended daily dose (mmol/kg-bw/day) [1] is reported as 0.0308.
In the case of `CC(=O)O[C@H]1C[C@H](O[C@H]2[C@@H](O)C[C@H](O[C@H]3[C@@H](O)C[C@H](OC4CC[C@@]5(C)[C@H](CC[C@@H]6[C@@H]5CC[C@]5(C)[C@@H](C7=CC(=O)OC7)CC[C@]65O)C4)O[C@@H]3C)O[C@@H]2C)O[C@H](C)[C@H]1O[C@@H]1O[C@H](CO)[C@@H](O)[C@H](O)[C@H]1O` (stereo not given in full), the maximum recommended daily dose (mmol/kg-bw/day) (TherapeuticCategory: cardiotonic) is reported as 3.44e-05.
`OC1OC[C@@H](O)[C@H](O)[C@H]1O` (stereo not given in full) was tested, and the maximum recommended daily dose (mmol/kg-bw/day) (TherapeuticCategory: intestinal function diagnostic aid) was 2.78.
`CC(Oc1ccccc1)C(=O)N[C@@H]1C(=O)N2[C@@H]1SC(C)(C)[C@@H]2C(=O)O` (stereo not given in full) showed a maximum recommended daily dose (mmol/kg-bw/day) [1] of 0.137.
With `C#C[C@]1(O)CC[C@H]2[C@@H]3CCC4=Cc5oncc5C[C@]4(C)[C@H]3CC[C@@]21C` the maximum recommended daily dose (mmol/kg-bw/day) (TherapeuticCategory: antigonadotropin) was 0.0394.
In the case of `CNC1(c2ccccc2Cl)CCCCC1=O` (stereo not given), the maximum recommended daily dose (mmol/kg-bw/day) (TherapeuticCategory: anesthetic) is reported as 0.00841.
Compound `CC[C@H](OC(C)=O)C(C[C@H](C)N(C)C)(c1ccccc1)c1ccccc1` has a maximum recommended daily dose (mmol/kg-bw/day) (TherapeuticCategory: treatment of narcotic addiction) of 0.0113.

— PubChem BioAssay AID1195 (EPA DSSTox, 2008)
